Reference: US8703805B2 (Exelixis Patent Company LLC, priority 2005, dated 2014)

Test system: LXRα and/or LXRβ
Experiment: LXR/LXRE co-transfection assay (luciferase reporter, CV-1 cells)
Type: cell-based, human
Conditions: IC50 or EC50 for LXR (LXRα and/or LXRβ, not distinguished), tested as described in Example 109, CV-1 cells
Procedure, shortened: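 Transient co-transfection of CV-1 cells with full-length human LXRα or LXRβ plus RXRα expression plasmids and an LXREx1-Tk-luciferase reporter; compounds (10 μM screen, ≤1% DMSO) incubated 20 h at 37 °C. Luminescence read after lysis; EC50/IC50 from 8-point half-log curves, efficacy relative to a high control or DMSO.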

| Structure (SMILES) | EC50 [µM] |
| --- | --- |
| CN(C)CCCN(C)C(=O)c1cc(-c2ccc(-c3cccc(S(C)(=O)=O)c3)s2)n(-c2ccccc2Cl)n1 [Example 588, 1-(2-chlorophenyl)-N-[3-(dimethylamino)propyl]-N-methyl-5-{5-[3-(methylsulfonyl)phenyl]-2-thienyl}-1H-pyrazole-3-carboxamide] | < 1 |
| CC(C)(O)c1cc(-c2ccccc2Cl)n(-c2ccc(-c3cccc(S(C)(=O)=O)c3)cc2Cl)n1 [Example 114, 2-(1-(3-chloro-3′-(methylsulfonyl)biphenyl-4-yl)-5-(2-chlorophenyl)-1H-pyrazol-3-yl)propan-2-ol] | < 1 |
| CN(C)CCN(C)C(=O)c1cc(-c2ccc(-c3cccc(S(C)(=O)=O)c3)s2)n(-c2ccccc2Cl)n1 [Example 1144, 1-(2-chlorophenyl)-N-[2-(dimethylamino)ethyl]-N-methyl-5-{5-[3-(methylsulfonyl)phenyl]-2-thienyl}-1H-pyrazole-3-carboxamide] | 1 to 10 |
| CC(C)(CNC=O)c1cc(-c2ccc(-c3cccc(S(C)(=O)=O)c3)s2)n(-c2ccccc2Cl)n1 [Example 1204, N-{2-[1-(2-chlorophenyl)-5-{5-[3-(methylsulfonyl)phenyl]-2-thienyl}-1H-pyrazol-3-yl]-2-methylpropyl}formamide] | 1 to 10 |
| Cc1cc(-c2cccc(S(C)(=O)=O)c2)ccc1-n1nc(C(C)(C)O)cc1-c1cccc(Cl)c1Cl [Example 136, 2-(5-(2,3-dichlorophenyl)-1-(3-methyl-3′-(methylsulfonyl)biphenyl-4-yl)1H-pyrazol-3-yl)propan-2-ol] | < 1 |
| CC(C)S(=O)(=O)c1cccc(-c2ccc(-c3cc(C(F)(F)F)nn3-c3ccccc3C(F)(F)F)cc2)c1 [Example 1168, 5-{3′-[(1-methylethyl)sulfonyl)biphenyl-4-yl}-3-(trifluoromethyl)-1-[2-(trifluoromethyl)phenyl]-1H-pyrazole] | < 1 |
| CC(C)(C(=O)O)c1cccc(-c2ccc(-c3cc(C(F)(F)F)nn3Cc3ccc(F)cc3F)s2)c1 [Example 1205, 2-[3-(5-{1-[(2,4-difluorophenyl)methyl]-3-(trifluoromethyl)-1H-pyrazol-5-yl}-2-thienyl)phenyl]-2-methylpropanoic acid] | < 1 |
| COC(C)(C)c1cc(-c2ccc(-c3cccc(S(C)(=O)=O)c3)s2)n(-c2ccccc2C(F)(F)F)n1 [Example 1189, 3-[1-methyl-1-(methyloxy)ethyl]-5-{5-[3-(methylsulfonyl)phenyl]-2-thienyl}-1-[2-(trifluoromethyl)phenyl]-1H-pyrazole] | < 1 |
| CC(C)(O)c1cc(-c2ccccc2Cl)n(-c2ccc(-c3cccc(S(C)(=O)=O)c3)cn2)n1 [Example 1233, 2-[5-(2-chlorophenyl)-1-{5-[3-(methylsulfonyl)phenyl]pyridin-2-yl}-1H-pyrazol-3-yl]propan-2-ol] | 1 to 10 |
| CC(C)(O)c1cc(-c2ccc(-c3cccc(S(C)(=O)=O)c3)cc2)n(-c2c(Cl)cccc2Cl)n1 [Example 133, 2-(1-(2,6-dichlorophenyl)-5-(3′-(methylsulfonyl)biphenyl-4-yl)-1H-pyrazol-3-yl)propan-2-ol] | < 1 |
| CN1CCN(CCn2nc(C(F)(F)F)cc2-c2ccc(-c3cccc(S(C)(=O)=O)c3)cc2)CC1 [Example 1223, 1-methyl-4-(2-{5-[3′-(methylsulfonyl)biphenyl-4-yl]-3-(trifluoromethyl)-1H-pyrazol-1-yl}ethyl)piperazine] | 1 to 10 |
| CS(=O)(=O)c1cccc(-c2ccc(-c3cc(C(F)(F)F)nn3-c3ccccc3S(N)(=O)=O)s2)c1 [Example 1131, 2-[5-{5-[3-(methylsulfonyl)phenyl]-2-thienyl}-3-(trifluoromethyl)-1H-pyrazol-1-yl]benzenesulfonamide] | < 1 |
| CC(C)(O)c1cc(-c2ccc(C(=O)N3CCC3)cc2)n(-c2ccccc2Cl)n1 [Example 80] | > 10 |
| CC(C)(O)c1cc(-c2cc(-c3cccc(S(C)(=O)=O)c3)co2)n(-c2ccccc2Cl)n1 [Example 1235, 2-[1-(2-chlorophenyl)-5-{4-[3-(methylsulfonyl)phenyl]furan-2-yl}-1H-pyrazol-3-yl]propan-2-ol] | 1 to 10 |
| CC(C)(O)c1cc(-c2sc(-c3cccc(S(C)(=O)=O)c3)cc2Br)n(-c2cccc(F)c2C(F)(F)F)n1 [Example 49, 2-(5-(3-bromo-5-(3-(methylsulfonyl)phenyl)thiophen-2-yl)-1-(3-fluoro-2-(trifluoromethyl)phenyl)-1H-pyrazol-3-yl)propan-2-ol] | < 1 |
| Cc1cc(-c2cccc(S(C)(=O)=O)c2)ccc1-n1nc(C(C)(C)O)cc1-c1ccccc1C(F)(F)F [Example 139, 2-(1-(3-methyl-3′-(methylsulfonyl)biphenyl-4-yl)-5-(2-(trifluoromethyl)phenyl)-1H-pyrazol-3-yl)propan-2-ol] | < 1 |
| CC(C)(C#N)c1cc(-c2ccc(-c3cccc(S(C)(=O)=O)c3)s2)n(-c2ccccc2Cl)n1 [Example 1134, 2-[1-(2-chlorophenyl)-5-{5-[3-(methylsulfonyl)phenyl]-2-thienyl}-1H-pyrazol-3-yl]-2-methylpropanenitrile] | < 1 |
| CC(C)(O)c1cc(-c2c(F)cccc2Cl)n(-c2ccc(-c3cccc(S(C)(=O)=O)c3)cc2Cl)n1 [Example 130, 2-(1-(3-chloro-3′-(methylsulfonyl)biphenyl-4-yl)-5-(2-chloro-6-fluorophenyl)-1H-pyrazol-3-yl)propan-2-ol] | < 1 |
| CS(=O)(=O)c1cccc(-c2ccc(-c3cc(C(=O)NCCN4CCOCC4)nn3-c3ccccc3Cl)s2)c1 [Example 590, 1-(2-chlorophenyl)-5-{5-[3-(methylsulfonyl)phenyl]-2-thienyl}-N-(2-morpholin-4-ylmethyl)-1H-pyrazole-3-carboxamide] | 1 to 10 |
| CN(CC#N)Cc1cc(-c2ccc(-c3cccc(S(C)(=O)=O)c3)s2)n(-c2ccccc2Cl)n1 [Example 558, [{[1-(2-chlorophenyl)-5-{5-[3-(methylsulfonyl)phenyl]-2-thienyl}-1H-pyrazol-3-yl]methyl}(methyl)amino]acetonitrile] | 1 to 10 |
| CC(C)(O)c1cc(-c2ccc(-c3cccc(S(C)(=O)=O)c3)cc2Cl)n(-c2c(Cl)cccc2Cl)n1 [Example 142, 2-(5-(3-chloro-3′-(methylsulfonyl)biphenyl-4-yl)-1-(2,6-dichlorophenyl)-1H-pyrazol-3-yl)propan-2-ol] | < 1 |

The remaining lines, values ahead:

| EC50 [µM] | Structure (SMILES) |
| --- | --- |
| > 10 | Cc1cc(NCCN2CCCCC2)ccc1-c1cc(C(C)(C)O)nn1-c1c(Cl)cccc1Cl [Example 1405, 2-(1-(2,6-dichlorophenyl)-5-(2-methyl-4-(2-(piperidin-1-yl)ethylamino)phenyl)-1H-pyrazol-3-yl)propan-2-ol] |
| < 1 | CC(C)(O)c1cc(-c2ccc(-c3cccc(S(C)(=O)=O)c3)s2)n(-c2ccccc2OC(F)(F)F)n1 [Example 1327, 2-(5-{5-[3-(methylsulfonyl)phenyl]-2-thienyl}-1-(2-[(trifluoromethyl)oxy]phenyl}-1H-pyrazol-3-yl)propan-2-ol] |
| 1 to 10 | CN(C)CCNC(=O)c1cccc(-c2ccc(-c3cc(C(C)(C)O)nn3-c3ccccc3Cl)cc2)c1 [Example 1293, 4′-[1-(2-chlorophenyl)-3-(1-hydroxy-methylethyl)-1H-pyrazol-5-yl]-N-[2-(dimethylamino)ethyl]biphenyl-3-carboxamide] |
| < 1 | Cc1cc(-c2cccc(S(C)(=O)=O)c2)ccc1-n1nc(C(C)(C)O)c(Cl)c1-c1c(Cl)cccc1Cl [Example 1424, 2-(4-chloro-5-(2,6-dichlorophenyl)-1-(3-methyl-3′-(methylsulfonyl)biphenyl-4-yl)-1H-pyrazol-3-yl)propan-2-ol] |
| 1 to 10 | CON(C)C(=O)c1cc(-c2ccc(-c3cccc(S(C)(=O)=O)c3)s2)n(-c2ncccc2C(F)(F)F)n1 [Example 1237, N-methyl-N-(methyloxy)-5-{5-[3-(methylsulfonyl)phenyl]-2-thienyl}-1-[3-(trifluoromethyl)pyridin-2-yl]-1H-pyrazole-3-carboxamide] |
| 1 to 10 | CS(=O)(=O)c1cc(-c2ccc(-c3cc(C(F)(F)F)nn3-c3cc(Cl)ccc3Cl)s2)ccc1OCCO [Example 1255, 2-{[4-{5-[1-(2,5-dichlorophenyl)-3-(trifluoromethyl)-1H-pyrazol-5-yl]-2-thienyl}-2-(methylsulfonyl)phenyl]oxy}ethanol] |
| < 1 | CC(C)(O)c1cc(-c2ccc(-c3cccc(S(C)(=O)=O)c3)s2)n(-c2cccc(F)c2F)n1 [Example 1326, 2-[1-(2,3-difluorophenyl)-5-{5-[3-(methylsulfonyl)phenyl]-2-thienyl}-1H-pyrazol-3-yl]propan-2-ol] |
| 1 to 10 | CC(C)(O)c1ccc(-c2ccc(-c3cc(C(F)(F)F)nn3-c3ccccc3Cl)s2)cc1 [Example 1241, 2-(4-{5-[1-(2-chlorophenyl)-3-(trifluoromethyl)-1H-pyrazol-5-yl]-2-thienyl}phenyl)propan-2-ol] |
| < 1 | C/C(=N\OCCN(C)C)c1cc(-c2ccc(-c3cccc(S(C)(=O)=O)c3)s2)n(-c2ccccc2Cl)n1 [Example 1337, (1E)-1-[1-(2-chlorophenyl)-5-{5-[3-(methylsulfonyl)phenyl]-2-thienyl}-1H-pyrazol-3-yl]ethanone O-[2-(dimethylamino)ethyl]oxime] |
| 1 to 10 | CC(C)(O)c1cc(-c2ccc(-c3cccc(C#N)c3)s2)n(-c2ccccc2Cl)n1 [Example 1269, 3-{5-[1-(2-chlorophenyl)-3-(1-hydroxy-1-methylethyl)-1H-pyrazol-5-yl]-2-thienyl}benzonitrile] |
| 1 to 10 | COC(=O)c1cc(-c2ccccc2Cl)n(-c2ccc(-c3cccc(S(C)(=O)=O)c3)nc2)n1 [Example 1244, methyl 5-(2-chlorophenyl)-1-{6-[3-(methylsulfonyl)phenyl]pyridin-3-yl}-1H-pyrazole-3-carboxylate] |
| 1 to 10 | CC(C)(O)c1cc(-c2cc(-c3cccc(S(C)(=O)=O)c3)cs2)n(-c2ccccc2Cl)n1 [Example 1250, 2-[1-(2-chlorophenyl)-5-{4-[3-(methylsulfonyl)phenyl]-2-thienyl}-1H-pyrazol-3-yl]propan-2-ol] |
